Where two headings read alike, the source gives them in different places.
What was measured:
[1] = target: T1, progesterone receptor (Homo sapiens, UniProt P06401); test: PR transactivation assay, agonistic activity (PR luciferase reporter); assay type: cell-based; details: T47D cells
T1 sequence (P06401 679-933 limits assumed): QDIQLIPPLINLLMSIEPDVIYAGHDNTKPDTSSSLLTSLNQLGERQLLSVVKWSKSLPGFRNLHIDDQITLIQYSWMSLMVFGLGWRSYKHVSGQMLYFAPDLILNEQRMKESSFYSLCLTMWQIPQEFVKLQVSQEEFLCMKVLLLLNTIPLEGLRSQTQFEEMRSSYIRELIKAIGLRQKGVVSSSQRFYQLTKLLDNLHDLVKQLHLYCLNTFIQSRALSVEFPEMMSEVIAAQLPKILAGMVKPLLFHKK
Description: (§1) Transactivation Assay for Progesterone Agonist and Antagonistic Activity (See Table 1).
(§2) Experimental: PR transactivation studies was carried out in human breast cancer (T47D) cells, grown in RPMI medium without phenol red and 5% charcoal stripped fetal bovine serum, transiently transfected with PR luciferase reporter (CCS-6043L signal reporter assay kit, Qiagen). The cells were stimulated R5020 as PR agonist and treated in the presence or absence of the tested compounds for 24 hours. The effect was calculated using dual luciferase assay kit (Promega, WI)) based on RU486 as full antagonist and R5020 as agonist for progesterone receptor.

[2] = target: T2, progesterone receptor (Homo sapiens, UniProt P06401); test: PR transactivation assay, antagonistic activity (PR luciferase reporter); assay type: cell-based; details: for Ratio of IC50's: PR agonism / PR antagonism
T2 sequence (P06401 165-933 limits assumed): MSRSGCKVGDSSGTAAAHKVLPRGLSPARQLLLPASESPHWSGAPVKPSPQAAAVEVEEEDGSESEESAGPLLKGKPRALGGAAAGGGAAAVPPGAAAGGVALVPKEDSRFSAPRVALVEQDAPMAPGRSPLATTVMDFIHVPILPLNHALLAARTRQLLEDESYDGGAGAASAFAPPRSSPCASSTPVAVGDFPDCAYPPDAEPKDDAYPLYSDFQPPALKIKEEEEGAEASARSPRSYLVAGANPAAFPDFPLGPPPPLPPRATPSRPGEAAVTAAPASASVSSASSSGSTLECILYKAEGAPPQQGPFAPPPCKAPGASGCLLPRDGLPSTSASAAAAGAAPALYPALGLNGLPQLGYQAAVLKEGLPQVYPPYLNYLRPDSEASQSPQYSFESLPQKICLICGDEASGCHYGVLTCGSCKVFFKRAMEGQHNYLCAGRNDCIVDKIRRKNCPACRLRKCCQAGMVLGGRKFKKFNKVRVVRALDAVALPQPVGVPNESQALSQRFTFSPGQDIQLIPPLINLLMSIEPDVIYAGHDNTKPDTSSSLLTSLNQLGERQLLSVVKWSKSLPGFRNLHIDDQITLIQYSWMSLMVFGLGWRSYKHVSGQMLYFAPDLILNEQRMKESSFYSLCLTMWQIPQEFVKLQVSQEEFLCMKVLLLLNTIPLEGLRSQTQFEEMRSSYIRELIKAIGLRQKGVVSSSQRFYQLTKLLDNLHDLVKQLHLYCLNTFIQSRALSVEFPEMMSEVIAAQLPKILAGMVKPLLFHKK
Description: as §1
as §2, with “hours.” for “hours. The effect was calculated using dual luciferase assay kit (Promega, WI)) based on RU486 as full antagonist and R5020 as agonist for progesterone receptor.”

[3] = tested on: guinea pig; test: Guinea pig model (ovulation inhibition, uterine weight, vagina, ovary, classification); assay type: in vivo; details: for Classification: guinea pig model; for ER-/PR balance vagina. / Ovary (CL): at max. dose (10.mg/day s.c.); for Ovary (CL): CL = corpora lutea
[4] = stimulant R5020, read-out: EC50
[5] = T47D cells, stimulant R5020, read-out: IC50 Average of 2 expts
[6] = Table 2 summary, read-out: PR antagonism (IC50)

Row | EC50 [1, 4] | IC50 [2, 5] | IC50 [2, 6] | Agonist rel to R5020 (%) [1] | Ratio of IC50's [2] | Antagonist rel to RU486 (%) ([2]; T47D cells, stimulant R5020) | EC50 ([1]; control compound R5020, read-out: Control EC50) | Structure (SMILES) | Classification [3] | Uterine Weight at max. dose (10.mg/day s.c.) ([3]; guinea pig) | ER-/PR balance vagina. ([3]; guinea pig) | Ovary (CL) ([3]; guinea pig) | ER-/PR balance vagina.: dose at which the dominance is seen ([3]; guinea pig)
1 | 4.9 nM | 0.62 nM | 0.62 nM | – | – | – | – | COC[C@]1(OC)CC[C@H]2[C@@H]3CCC4=CC(=O)CCC4=C3[C@@H](c3ccc(/C=N/O)cc3)C[C@@]21C [ASOPRISNIL, reference compound] | – | – | – | – | –
2 | 9.5 nM | 0.325 nM | 0.33 nM | 3.9% | 28.7 | 342.9% | – | C[C@]12C[C@H](c3ccc(S(C)(=O)=O)cc3)C3=C4CCC(=O)C=C4CC[C@H]3[C@@H]1CC[C@@]2(O)C(F)(F)C(F)(F)F [BAY 1002670, reference compound] | – | – | – | – | –
3 | 4.75 nM | 2.1 nM | 2.1 nM | 6.4% | 2.2 | 57.1% | – | CC[C@@H]1CC2C3CCC4=CC(=O)CCC4=C3[C@@H](c3ccc(-c4ccoc4)cc3)C[C@]2(C)C1C(C)=O (stereo partly drawn) [EC343, 11β-{4′-[3′-furanyl)phenyl}-16α-ethyl-19-norpregna-4,9-diene-3,20-dione] | – | – | – | – | –
4 | 49 nM | 1 nM | – | 0.65% | – | 120% | – | C=C[C@@H]1CC2C3CCC4=CC(=O)CCC4=C3[C@@H](c3ccc(-c4ccoc4)cc3)C[C@]2(C)C1C(C)=O (stereo partly drawn) [EC345, 11β-{4′-[3′-furanyl)phenyl}-16α-ethenyl-19-norpregna-4,9-diene-3,20-dione] | – | – | – | – | –
5 | – | 0.3 nM | – | 0.32% | – | 378% | – | CC[C@@H]1CC2C3CCC4=CC(=O)CCC4=C3[C@@H](c3ccc(-n4ccnc4)cc3)C[C@]2(C)C1C(C)=O (stereo partly drawn) [EC346, 11β-{4′-[1′ imidazolyl)phenyl}-16α-ethyl-19-norpregna-4,9-diene-3,20-dione] | mesoprogestin | 0.8 | PR-domin | degenerated | –
6 | – | – | – | – | – | – | 0.35 nM | CCC(=O)[C@@]1(C)CC[C@H]2[C@@H]3CCC4=CC(=O)CCC4=C3CC[C@@]21C [R5020, reference compound] | – | – | – | – | –

More lines, now with the values behind:

Row | Structure (SMILES) | EC50 [1, 4] | IC50 [2, 5] | IC50 [2, 6] | Agonist rel to R5020 (%) [1] | Ratio of IC50's [2] | Antagonist rel to RU486 (%) ([2]; T47D cells, stimulant R5020) | EC50 ([1]; control compound R5020, read-out: Control EC50) | Classification [3] | Uterine Weight at max. dose (10.mg/day s.c.) ([3]; guinea pig) | ER-/PR balance vagina. ([3]; guinea pig) | Ovary (CL) ([3]; guinea pig) | ER-/PR balance vagina.: dose at which the dominance is seen ([3]; guinea pig)
7 | C=C1CCOC12CCC1C3CCC4=CC(=O)CCC4=C3[C@@H](c3ccc(-n4ccnc4)cc3)C[C@@]12C (some centres unmarked) [EC336] | 5 nM | 5 nM | 5 nM | 7% | 1.0 | 21.8% | – | – | – | – | – | –
8 | C=C[C@@H]1CC2C3CCC4=CC(=O)CCC4=C3[C@@H](c3ccc(-c4cccnc4)cc3)C[C@]2(C)C1C(C)=O (stereo partly drawn) [EC344, 11β-{4′-[3′-pyridinyl)phenyl}-16α-ethenyl-19-norpregna-4,9-diene-3,20-dione] | – | 0.35 nM | – | 0.32% | – | 324% | – | – | – | – | – | –
9 | C=C[C@@H]1CC2C3CCC4=CC(=O)CCC4=C3[C@@H](c3ccc(-n4ccnc4)cc3)C[C@]2(C)C1C(C)=O (some centres unmarked) [EC347] | 3.4 nM | 0.95 nM | 0.95 nM | 9.7% | 3.5 | 120% | – | mesoprogestin | 1.01 | PR-domin | degenerated | –
10 | C[C@]12C[C@H](c3ccc(-n4ccnc4)cc3)C3=C4CCC(=O)C=C4CCC3C1CC[C@@]2(O)C(F)(F)C(F)(F)F (some centres unmarked) [EC-317] | – | 0.46 nM | 0.46 nM | 0.35% | 217.3 | 255.3% | – | – | – | – | – | –
11 | CC#C[C@]1(O)CC[C@H]2[C@@H]3CCC4=CC(=O)CCC4=C3[C@@H](c3ccc(N(C)C)cc3)C[C@@]21C [RU-486, reference compound] | – | – | – | – | – | – | – | – | (1.26) | – | – | ≧1.0 mg

From US9850273B2, “Combination of estrogens plus antiprogestins with significant partial agonistic effect as an effective treatment of menopausal symptoms and for prevention of the occurrence of breast cancer” (Evestra, Inc., priority 2014, dated 2017)
